Measurements published in PubChem BioAssay (NCI).
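Briefly, cells in 96-well plates were exposed to five compound concentrations for 48 h, and endpoints were estimated by linear interpolation. GI50 = concentration required for 50% inhibition of growth. The concentration for full growth arrest is given as TGI.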

Key:
Experiment in all cases: growth of human tumour cells (NCI), 48 h
[1] = tested on: A498 renal
[2] = tested on: BT-549 breast
[3] = tested on: HCC-2998 colon
[4] = tested on: HOP-92 NSCLC
[5] = tested on: MALME-3M melanoma
[6] = tested on: MCF7 breast
[7] = tested on: SF-539 CNS
[8] = tested on: SK-MEL-5 melanoma
[9] = tested on: SK-OV-3 ovarian
[10] = tested on: SNB-75 CNS

Structure (SMILES): COc1cc(-c2cn(-c3ccc(F)cc3)c(=O)[nH]2)cc(OC)c1OC
- GI50 [1]: > 100 µM
- TGI [1]: > 100 µM
- GI50 [2]: > 100 µM
- TGI [2]: > 100 µM
- GI50 [3]: > 100 µM
- TGI [3]: > 100 µM
- GI50 [4]: 79.4 µM
- TGI [4]: > 100 µM
- GI50 [5]: > 100 µM
- TGI [5]: > 100 µM
- GI50 [6]: > 100 µM
- TGI [6]: > 100 µM
- GI50 [7]: > 100 µM
- TGI [7]: > 100 µM
- GI50 [8]: > 100 µM
- TGI [8]: > 100 µM
- GI50 [9]: > 100 µM
- TGI [9]: > 100 µM
- GI50 [10]: 55.6 µM
- TGI [10]: > 100 µM

Structure (SMILES): COc1ccc(/C=N/C2=NNC(C)(c3ccccc3O)N2C(Cc2c[nH]c3ccccc23)C(=O)O)cc1 (stereo not given)
- GI50 [1]: 3.1 µM
- TGI [1]: 9.03 µM
- GI50 [2]: 2.24 µM
- TGI [2]: 7.62 µM
- GI50 [3]: 3.53 µM
- TGI [3]: 13.3 µM
- GI50 [4]: 1.31 µM
- TGI [4]: 5.17 µM
- GI50 [5]: 1.9 µM
- TGI [5]: 6.49 µM
- GI50 [6]: 2.23 µM
- TGI [6]: 10.9 µM
- GI50 [7]: 2.75 µM
- TGI [7]: 10.3 µM
- GI50 [8]: 1.66 µM
- TGI [8]: 3.09 µM
- GI50 [9]: 2.85 µM
- TGI [9]: 14.5 µM
- GI50 [10]: 1.72 µM
- TGI [10]: 13.4 µM

Structure (SMILES): CN1CCN(c2ccc(NC(=O)c3cncnc3Nc3ccc4c(ccn4Cc4cccc(F)c4)c3)cc2)CC1
- GI50 [1]: 2.16 µM
- TGI [1]: 6.76 µM
- GI50 [2]: 5.23 µM
- TGI [2]: 9.78 µM
- GI50 [3]: 3.03 µM
- TGI [3]: 7.4 µM
- GI50 [4]: 3.54 µM
- TGI [4]: 8.42 µM
- GI50 [5]: 0.524 µM
- TGI [5]: 0.976 µM
- GI50 [6]: 1.15 µM
- TGI [6]: 5.02 µM
- GI50 [7]: 1.35 µM
- TGI [7]: 5.54 µM
- GI50 [8]: 1.56 µM
- TGI [8]: 5.91 µM
- GI50 [9]: 5.09 µM
- TGI [9]: 9.78 µM
- GI50 [10]: 4.27 µM
- TGI [10]: 8.51 µM

Structure (SMILES): CCN(CC)CCC(CNc1c(C)cnc2cc(Cl)ccc12)c1ccc(Cl)c(Cl)c1 (stereo not given)
- GI50 [1]: 9.4 µM
- TGI [1]: 24.8 µM
- GI50 [2]: 8.2 µM
- TGI [2]: 21.3 µM
- GI50 [3]: 1.77 µM
- TGI [3]: 3.36 µM
- GI50 [4]: 1.96 µM
- TGI [4]: 8.03 µM
- GI50 [5]: 1.88 µM
- TGI [5]: 3.5 µM
- GI50 [6]: 1.79 µM
- TGI [6]: 4.15 µM
- GI50 [7]: 1.77 µM
- TGI [7]: 3.52 µM
- GI50 [8]: 1.82 µM
- TGI [8]: 3.26 µM
- GI50 [9]: 14.4 µM
- TGI [9]: 28 µM
- GI50 [10]: 3.9 µM
- TGI [10]: 18.7 µM

Structure (SMILES): Nc1nc(N)c2cc(S(=O)(=O)c3ccccc3)ccc2n1
- GI50 [1]: 8.33 µM
- TGI [1]: > 100 µM
- GI50 [2]: 6.59 µM
- TGI [2]: 92.3 µM
- GI50 [3]: 2.38 µM
- TGI [3]: 32.2 µM
- GI50 [4]: 4.64 µM
- TGI [4]: 72.8 µM
- GI50 [5]: 4.97 µM
- TGI [5]: > 100 µM
- GI50 [6]: 2.86 µM
- TGI [6]: > 100 µM
- GI50 [7]: 2.05 µM
- TGI [7]: > 100 µM
- GI50 [8]: 1.14 µM
- TGI [8]: > 100 µM
- GI50 [9]: 5.41 µM
- TGI [9]: > 100 µM
- GI50 [10]: 8.86 µM
- TGI [10]: > 100 µM

Structure (SMILES): Nc1n[nH]c2cc(F)c([C@@H]3Nc4c(F)cc5[nH]ncc5c4[C@H]4C5CCC(C5)[C@@H]34)cc12 (stereo not given in full)
- GI50 [1]: 0.063 µM
- TGI [1]: 0.212 µM
- GI50 [2]: 0.103 µM
- TGI [2]: 1.37 µM
- GI50 [3]: 0.118 µM
- TGI [3]: 4.5 µM
- GI50 [4]: 0.36 µM
- TGI [4]: 4.1 µM
- GI50 [5]: 0.948 µM
- TGI [5]: 14.3 µM
- GI50 [6]: 0.118 µM
- TGI [6]: 6.32 µM
- GI50 [7]: 0.0792 µM
- TGI [7]: 0.23 µM
- GI50 [8]: 0.114 µM
- TGI [8]: 0.538 µM
- GI50 [9]: 0.275 µM
- TGI [9]: 20.7 µM
- GI50 [10]: 0.0894 µM
- TGI [10]: 0.635 µM

Structure (SMILES): C=C(C)[C@@H]1CC[C@]2(COC(=O)c3ccccc3C(=O)O)CC[C@]3(C)[C@H](CC[C@@H]4[C@@]5(C)CC[C@H](OC(=O)c6ccccc6C(=O)O)C(C)(C)[C@@H]5CC[C@]43C)[C@@H]12
- GI50 [1]: 40.6 µM
- TGI [1]: > 100 µM
- GI50 [2]: 33.3 µM
- TGI [2]: > 100 µM
- GI50 [3]: 74.3 µM
- TGI [3]: > 100 µM
- GI50 [4]: 19.6 µM
- TGI [4]: 64.5 µM
- GI50 [5]: 60.8 µM
- TGI [5]: > 100 µM
- GI50 [6]: > 100 µM
- TGI [6]: > 100 µM
- GI50 [7]: 36.3 µM
- TGI [7]: > 100 µM
- GI50 [8]: 99.2 µM
- TGI [8]: > 100 µM
- GI50 [9]: 35.8 µM
- TGI [9]: > 100 µM
- GI50 [10]: 15.4 µM
- TGI [10]: 36 µM
